Data from patent US20250263753A1, “BRIDGED CYCLE-BASED INHIBITORS OF DNA-DEPENDENT PROTEIN KINASE AND COMPOSITIONS AND APPLICATION IN GENE EDITING” (Juno Therapeutics, Inc., priority 2023, published 2025).
Read-outs that look alike come from different tables or passages of the source.

What was measured:
ATM = ATM (Homo sapiens (Human), UniProt Q13315); assay: ATM biochemical assay (Reaction Biology HTRF kinase assay, 10 μM ATP)
Outline: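 HTRF kinase assay with N-terminal GST-tagged human p53 (aa2-393) substrate, 10 μM ATP, in 50 mM Hepes pH 7.5, 10 mM MnCl2, 1% DMSO. Enzyme preincubated with compound 30 min, reaction 2 h at room temperature. pS15 phosphorylation read by Eu-cryptate anti-p53-pS15/anti-GST-d2 HTRF (615/665 nm).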

[1] = target: PI3Kα (His-PIK3CA/PIK3R1, p110 alpha/p85 alpha) (Homo sapiens (Human), UniProt P42336); assay: PI3Kα biochemical assay (HTRF/FRET probe); format: binding
Sequence of PI3Kα (His-PIK3CA/PIK3R1, p110 alpha/p85 alpha) (P42336 whole entry, species assumed): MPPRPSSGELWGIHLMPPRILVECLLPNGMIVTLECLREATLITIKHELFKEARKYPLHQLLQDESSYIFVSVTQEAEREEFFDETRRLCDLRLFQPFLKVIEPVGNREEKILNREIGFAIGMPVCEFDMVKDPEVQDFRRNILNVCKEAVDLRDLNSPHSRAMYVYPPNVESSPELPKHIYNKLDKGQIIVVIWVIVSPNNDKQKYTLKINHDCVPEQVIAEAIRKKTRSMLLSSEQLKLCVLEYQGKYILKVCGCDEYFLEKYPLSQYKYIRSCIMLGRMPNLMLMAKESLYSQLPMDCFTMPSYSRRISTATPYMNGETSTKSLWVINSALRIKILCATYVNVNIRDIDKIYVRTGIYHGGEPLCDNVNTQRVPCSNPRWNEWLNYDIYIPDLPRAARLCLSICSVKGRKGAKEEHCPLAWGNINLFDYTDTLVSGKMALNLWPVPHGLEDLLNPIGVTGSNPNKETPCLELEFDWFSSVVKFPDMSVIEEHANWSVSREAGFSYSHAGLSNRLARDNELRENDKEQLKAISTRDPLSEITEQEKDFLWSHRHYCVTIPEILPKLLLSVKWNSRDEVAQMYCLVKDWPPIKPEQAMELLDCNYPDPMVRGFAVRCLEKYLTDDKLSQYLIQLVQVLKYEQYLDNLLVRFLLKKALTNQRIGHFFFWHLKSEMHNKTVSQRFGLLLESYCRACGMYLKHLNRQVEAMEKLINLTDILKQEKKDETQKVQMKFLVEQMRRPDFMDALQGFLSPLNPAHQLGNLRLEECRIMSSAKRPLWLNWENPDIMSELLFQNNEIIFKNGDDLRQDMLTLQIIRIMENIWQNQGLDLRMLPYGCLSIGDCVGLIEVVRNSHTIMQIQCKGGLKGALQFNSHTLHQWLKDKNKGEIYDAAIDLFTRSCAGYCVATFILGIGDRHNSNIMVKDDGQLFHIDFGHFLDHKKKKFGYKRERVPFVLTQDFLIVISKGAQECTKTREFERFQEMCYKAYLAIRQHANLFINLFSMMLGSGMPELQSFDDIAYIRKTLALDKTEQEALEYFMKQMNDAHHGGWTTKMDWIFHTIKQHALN
Sequence of PI3Kα (His-PIK3CA/PIK3R1, p110 alpha/p85 alpha) (P27986 whole entry partner, species assumed): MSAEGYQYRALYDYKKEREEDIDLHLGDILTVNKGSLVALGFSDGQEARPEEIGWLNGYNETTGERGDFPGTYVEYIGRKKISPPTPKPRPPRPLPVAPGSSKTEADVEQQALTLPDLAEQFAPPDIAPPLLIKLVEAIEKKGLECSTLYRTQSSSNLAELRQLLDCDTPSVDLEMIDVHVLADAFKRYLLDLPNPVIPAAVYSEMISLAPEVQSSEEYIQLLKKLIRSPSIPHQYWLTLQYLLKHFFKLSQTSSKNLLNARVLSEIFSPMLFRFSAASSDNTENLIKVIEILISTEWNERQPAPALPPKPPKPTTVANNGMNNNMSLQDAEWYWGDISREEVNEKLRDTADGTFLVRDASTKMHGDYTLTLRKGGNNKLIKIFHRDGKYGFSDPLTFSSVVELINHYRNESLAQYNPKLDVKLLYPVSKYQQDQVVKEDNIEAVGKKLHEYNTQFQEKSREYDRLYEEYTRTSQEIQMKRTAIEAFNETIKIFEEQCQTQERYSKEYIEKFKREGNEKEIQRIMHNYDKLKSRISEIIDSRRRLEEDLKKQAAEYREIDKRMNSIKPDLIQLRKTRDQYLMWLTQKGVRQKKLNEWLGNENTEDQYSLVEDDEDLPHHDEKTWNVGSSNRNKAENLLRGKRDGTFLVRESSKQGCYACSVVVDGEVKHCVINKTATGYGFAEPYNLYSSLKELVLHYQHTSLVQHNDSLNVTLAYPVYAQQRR
Method: Phosphoinositide 3-kinase α (PI3Kα) Biochemical Assay: A solution was prepared containing 0.2 nM Anti-HIS-Terbium (Cisbio, 64CUSTAZU), 3.7 nM designed-probe and 1.0 nM His-PIK3CA/PIK3R1 (p110 alpha/p85 alpha) in FRET Buffer (20 mM HEPES, 10 mM MgCl2, 0.015% Brij-35, 4 mM DTT, 0.05 mg/mL BSA).

DNA-PK = DNA-PK (Homo sapiens (Human), UniProt P78527); assay: DNA-PK biochemical assay (Reaction Biology HotSpot kinase assay, 10 μM ATP)
Outline: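 Radiometric 33P-ATP kinase reaction in 20 mM Hepes pH 7.5, 10 mM MgCl2, 1 mM EGTA, 2 mM DTT, 1% DMSO. Compound preincubated with kinase and substrate 20 min at room temperature, then reaction run 2 h at room temperature after ATP addition. Activity read by P81 filter binding.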

[2] = target: PI3Kδ (His-PIK3CD/PIK3R1, p110 delta/p85 alpha) (Homo sapiens (Human), UniProt O00329); assay: PI3Kδ biochemical assay (HTRF/FRET probe); format: binding
Method: Phosphoinositide 3-kinase (PI3K) Biochemical Assay: A solution was prepared containing 0.2 nM Anti-HIS-Terbium (Cisbio, 64CUSTAZU), 40 nM designed-probe and 1.0 nM His-PIK3CD/PIK3R1 (p110 delta/p85 alpha) in FRET Buffer (20 mM HEPES, 10 mM MgCl2, 0.015% Brij-35, 4 mM DTT, 0.05 mg/mL BSA).

PI3Kβ = PI3Kβ (Homo sapiens (Human), UniProt P42338); assay: PI3Kβ biochemical assay (Reaction Biology ADP-Glo)
Method: Phosphoinositide 3-kinase R (PI3KP) Biochemical Assay using Reaction Biology's ADP-Glo Assay Platform:
Step 1: Lipid kinases: Reaction Biology Corporation (RBC) currently offers lipid kinases in ADP-Glo format
Step 2: Assay Description Assay principle: The kinase reactions utilize ATP and produce ADP as a byproduct. The ADP production is quantified by ADP-Glo luminescence detection. This is a 3-step reaction: First, the kinase reaction with lipid substrate is carried out in the presence of ATP, and the reaction is quenched and depleted remaining ATP with ADP-Glo™ reagent, and then finally ADP is converted to ATP which is measured using a luciferase/luciferin reaction.
Step 3: Assay Procedure: 1. Prepare kinase in freshly prepared Reaction Buffer, kinase without substrate is delivered to background wells; 2. Deliver substrate into the kinase solution and gently mix, deliver to assay wells; 3. Deliver compounds in 100% DMSO into the kinase reaction mixture by Acoustic technology (Echo550; nanoliter range), incubate for 20 min at room temperature; 4. Deliver ATP into the reaction mixture to initiate the reaction; 5. Incubate for 60 min at 30° C.; 6. Quench the reaction with ADP-Glo reagent and incubate for 40 min; 7. Add Detection Mixture and incubate for 30 min; 8. Measure luminescence.
Step 4: Data Analysis: The luminescence is converted into M ADP production based on ADP standard curves. The nonlinear regression to obtain the standard curve and IC50 values are performed using Graphpad Prism software.

[3] = read-out: DNA-PK HotSpot 10 μM ATP IC50, class symbol

Sequence of ATM (Q13315 whole entry, the tested form may be a part): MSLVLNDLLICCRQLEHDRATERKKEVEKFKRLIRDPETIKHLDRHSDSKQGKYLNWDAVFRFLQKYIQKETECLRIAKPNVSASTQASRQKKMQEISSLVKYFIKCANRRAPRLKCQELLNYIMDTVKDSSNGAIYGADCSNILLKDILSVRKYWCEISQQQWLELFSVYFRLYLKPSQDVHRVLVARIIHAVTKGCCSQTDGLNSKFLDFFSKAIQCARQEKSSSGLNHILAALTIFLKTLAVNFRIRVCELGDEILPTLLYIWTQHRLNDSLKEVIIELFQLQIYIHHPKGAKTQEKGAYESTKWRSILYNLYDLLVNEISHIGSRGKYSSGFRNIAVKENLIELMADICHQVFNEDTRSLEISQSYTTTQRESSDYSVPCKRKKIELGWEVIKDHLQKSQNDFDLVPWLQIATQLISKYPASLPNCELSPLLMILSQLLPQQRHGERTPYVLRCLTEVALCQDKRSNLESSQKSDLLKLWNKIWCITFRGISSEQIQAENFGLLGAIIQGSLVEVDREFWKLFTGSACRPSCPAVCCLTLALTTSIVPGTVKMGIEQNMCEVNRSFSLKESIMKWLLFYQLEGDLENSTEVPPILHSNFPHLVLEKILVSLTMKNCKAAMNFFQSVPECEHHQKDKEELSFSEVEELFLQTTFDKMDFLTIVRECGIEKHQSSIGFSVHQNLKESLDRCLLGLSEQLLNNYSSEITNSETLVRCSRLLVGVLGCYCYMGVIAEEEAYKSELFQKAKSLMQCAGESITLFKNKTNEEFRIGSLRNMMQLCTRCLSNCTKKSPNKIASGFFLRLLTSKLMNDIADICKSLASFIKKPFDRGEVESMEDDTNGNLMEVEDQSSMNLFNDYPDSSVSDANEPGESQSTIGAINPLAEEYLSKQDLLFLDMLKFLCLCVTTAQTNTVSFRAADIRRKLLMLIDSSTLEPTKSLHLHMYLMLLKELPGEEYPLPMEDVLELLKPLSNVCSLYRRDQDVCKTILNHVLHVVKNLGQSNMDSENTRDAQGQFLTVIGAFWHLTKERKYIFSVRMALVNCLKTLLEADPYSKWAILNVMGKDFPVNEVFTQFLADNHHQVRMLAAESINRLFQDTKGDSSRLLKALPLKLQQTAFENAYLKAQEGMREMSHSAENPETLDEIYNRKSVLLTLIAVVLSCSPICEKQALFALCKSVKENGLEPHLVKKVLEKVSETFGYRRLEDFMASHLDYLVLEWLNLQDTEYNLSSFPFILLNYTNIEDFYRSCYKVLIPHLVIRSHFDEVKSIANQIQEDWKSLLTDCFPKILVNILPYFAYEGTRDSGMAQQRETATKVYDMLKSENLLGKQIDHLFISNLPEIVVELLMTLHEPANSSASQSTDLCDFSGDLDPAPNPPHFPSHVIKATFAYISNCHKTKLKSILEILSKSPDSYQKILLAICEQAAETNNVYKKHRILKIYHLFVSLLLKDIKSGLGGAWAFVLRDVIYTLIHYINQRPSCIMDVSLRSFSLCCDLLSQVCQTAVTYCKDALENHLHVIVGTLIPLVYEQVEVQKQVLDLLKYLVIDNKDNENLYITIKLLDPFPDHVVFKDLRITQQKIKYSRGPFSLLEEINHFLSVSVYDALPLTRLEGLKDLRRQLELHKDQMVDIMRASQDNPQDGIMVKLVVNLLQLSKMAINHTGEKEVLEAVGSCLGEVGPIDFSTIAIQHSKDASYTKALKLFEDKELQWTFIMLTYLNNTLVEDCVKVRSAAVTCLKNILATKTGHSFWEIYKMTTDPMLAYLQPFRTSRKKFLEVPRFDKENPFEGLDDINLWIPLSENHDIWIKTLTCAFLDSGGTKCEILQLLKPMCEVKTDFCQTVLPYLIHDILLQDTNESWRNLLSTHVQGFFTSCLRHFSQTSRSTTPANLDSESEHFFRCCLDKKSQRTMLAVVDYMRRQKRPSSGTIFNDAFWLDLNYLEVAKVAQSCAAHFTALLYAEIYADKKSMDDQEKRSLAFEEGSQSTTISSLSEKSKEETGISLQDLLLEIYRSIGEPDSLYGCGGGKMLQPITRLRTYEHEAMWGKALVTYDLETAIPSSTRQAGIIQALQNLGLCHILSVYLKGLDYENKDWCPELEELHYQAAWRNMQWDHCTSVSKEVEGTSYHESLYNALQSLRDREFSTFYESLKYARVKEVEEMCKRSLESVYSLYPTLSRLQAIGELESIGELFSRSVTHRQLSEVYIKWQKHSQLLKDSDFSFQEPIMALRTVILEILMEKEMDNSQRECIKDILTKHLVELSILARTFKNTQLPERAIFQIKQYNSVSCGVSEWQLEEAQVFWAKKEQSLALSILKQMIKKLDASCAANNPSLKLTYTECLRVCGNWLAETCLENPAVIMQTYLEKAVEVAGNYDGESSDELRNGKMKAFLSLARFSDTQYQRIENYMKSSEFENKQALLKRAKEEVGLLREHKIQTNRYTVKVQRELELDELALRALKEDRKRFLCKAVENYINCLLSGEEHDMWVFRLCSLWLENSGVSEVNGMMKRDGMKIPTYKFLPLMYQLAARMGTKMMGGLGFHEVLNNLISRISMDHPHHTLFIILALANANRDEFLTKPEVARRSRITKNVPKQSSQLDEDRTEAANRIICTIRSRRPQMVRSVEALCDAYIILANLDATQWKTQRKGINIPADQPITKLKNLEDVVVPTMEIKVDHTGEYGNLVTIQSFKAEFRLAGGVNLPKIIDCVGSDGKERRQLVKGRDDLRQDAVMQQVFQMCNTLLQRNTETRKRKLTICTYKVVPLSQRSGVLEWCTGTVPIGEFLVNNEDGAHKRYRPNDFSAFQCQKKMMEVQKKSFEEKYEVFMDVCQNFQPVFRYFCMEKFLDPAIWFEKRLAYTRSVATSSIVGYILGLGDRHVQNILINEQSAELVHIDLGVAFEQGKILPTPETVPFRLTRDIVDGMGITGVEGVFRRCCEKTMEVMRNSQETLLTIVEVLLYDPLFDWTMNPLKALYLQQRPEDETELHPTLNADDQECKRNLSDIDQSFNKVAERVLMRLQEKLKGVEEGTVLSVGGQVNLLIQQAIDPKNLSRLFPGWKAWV

| Structure (SMILES) | IC50 (ATM; class symbol) [nM] | IC50 ([1]; class symbol) [nM] | IC50 (DNA-PK; [3]) [nM] | IC50 ([2]; class symbol) [nM] | IC50 (PI3Kβ; class symbol) [nM] | IC50 (ATM; read-out: ATM HTRF 10 μM ATP IC50, numeric value) [nM] | IC50 ([1]; numeric value) [nM] | IC50 (DNA-PK; class symbol) [nM] | IC50 (DNA-PK; read-out: DNA-PK HotSpot 10 μM ATP IC50, numeric value) [nM] | IC50 ([2]; numeric value) [nM] | IC50 (PI3Kβ; numeric value) [nM] | IC50 (ATM; read-out: ATM HTRF 10 μM ATP IC50, class symbol) [nM] |
| --- | --- | --- | --- | --- | --- | --- | --- | --- | --- | --- | --- | --- |
| Cc1cc2c(cc1Nc1ncc3c(n1)n(C14CCC(O)(CC1)C4)c(=O)n3C)OCO2 [Compound 2, 9-(4-hydroxybicyclo[2.2.1]heptan-1-yl)-7-methyl-2-((6-methylbenzo[d][1,3]dioxol-5-yl)amino)-7,9-dihydro-8H-purin-8-one] | 100 to 1000 | ≥ 1000 | < 1 | ≥ 1000 | ≥ 1000 |  |  |  |  |  |  |  |
| Cc1cc2ncccc2cc1Nc1ncc2c(n1)n(C13CC(F)(C1)C3)c(=O)n2C [Compound 11, 9-(3-fluorobicyclo[1.1.1]pentan-1-yl)-7-methyl-2-((7-methylquinolin-6-yl)amino)-7,9-dihydro-8H-purin-8-one] | 10 to 100 | 100 to 1000 | < 1 | ≥ 1000 | 100 to 1000 |  |  |  |  |  |  |  |
| COC12CCC(n3c(=O)n(C)c4cnc(Nc5cc6c(cc5C)OCO6)nc43)(CC1)C2 [Compound 7, 9-(4-methoxybicyclo[2.2.1]heptan-1-yl)-7-methyl-2-((6-methylbenzo[d][1,3]dioxol-5-yl)amino)-7,9-dihydro-8H-purin-8-one] | 100 to 1000 | 100 to 1000 | < 1 | ≥ 1000 | ≥ 1000 |  |  |  |  |  |  |  |
| Cc1cc2ncnn2cc1Nc1ncc2c(n1)n(C13CCC(O)(CC1)C3)c(=O)n2C [Compound 1, 9-(4-hydroxybicyclo[2.2.1]heptan-1-yl)-7-methyl-2-((7-methyl-[1,2,4]triazolo[1,5-a]pyridin-6-yl)amino)-7,9-dihydro-8H-purin-8-one] | 10 to 100 | 100 to 1000 |  | ≥ 1000 | 100 to 1000 | 88 | 128 | < 1 | 0.07 | 1830 | 658 |  |
| COC12CCC(n3c(=O)n(C)c4cnc(Nc5cn6ncnc6cc5C)nc43)(CC1)C2 [Compound 6, 9-(4-methoxybicyclo[2.2.1]heptan-1-yl)-7-methyl-2-((7-methyl-[1,2,4]triazolo[1,5-a]pyridin-6-yl)amino)-7,9-dihydro-8H-purin-8-one] | 10 to 100 | 100 to 1000 | < 1 | ≥ 1000 | 100 to 1000 |  |  |  |  |  |  |  |

The remaining lines, values ahead:

| IC50 (ATM; class symbol) [nM] | IC50 ([1]; class symbol) [nM] | IC50 (DNA-PK; [3]) [nM] | IC50 ([2]; class symbol) [nM] | IC50 (PI3Kβ; class symbol) [nM] | IC50 (ATM; read-out: ATM HTRF 10 μM ATP IC50, numeric value) [nM] | IC50 ([1]; numeric value) [nM] | IC50 (DNA-PK; class symbol) [nM] | IC50 (DNA-PK; read-out: DNA-PK HotSpot 10 μM ATP IC50, numeric value) [nM] | IC50 ([2]; numeric value) [nM] | IC50 (PI3Kβ; numeric value) [nM] | IC50 (ATM; read-out: ATM HTRF 10 μM ATP IC50, class symbol) [nM] | Structure (SMILES) |
| --- | --- | --- | --- | --- | --- | --- | --- | --- | --- | --- | --- | --- |
| 100 to 1000 | ≥ 1000 | < 1 | ≥ 1000 | ≥ 1000 |  |  |  |  |  |  |  | Cc1cc2c(cc1Nc1ncc3c(n1)n([C@H]1C[C@@H]4CC[C@H]1C4)c(=O)n3C)OCO2 [Compound 46, 9-((1S,2S,4R)-bicyclo[2.2.1]heptan-2-yl)-7-methyl-2-((6-methylbenzo[d][1,3]dioxol-5-yl)amino)-7,9-dihydro-8H-purin-8-one] |
| 100 to 1000 | ≥ 1000 | < 1 | ≥ 1000 | ≥ 1000 |  |  |  |  |  |  |  | Cc1cc2c(cc1Nc1ncc3c(n1)n(C1CC4CCC1CC4)c(=O)n3C)OCO2 (centres unmarked) [Compound 43, 9-((1s,4s)-bicyclo[2.2.2]octan-2-yl)-7-methyl-2-((6-methylbenzo[d][1,3]dioxol-5-yl)amino)-7,9-dihydro-8H-purin-8-one] |
| 10 to 100 | 100 to 1000 | < 1 | ≥ 1000 | 100 to 1000 |  |  |  |  |  |  |  | Cc1cc2ncnn2cc1Nc1ncc2c(n1)n([C@H]1C[C@@H]3CC[C@H]1C3)c(=O)n2C [Compound 45, 9-((1S,2S,4R)-bicyclo[2.2.1]heptan-2-yl)-7-methyl-2-((7-methyl-[1,2,4]triazolo[1,5-a]pyridin-6-yl)amino)-7,9-dihydro-8H-purin-8-one] |
| 1 to 10 | 10 to 100 | < 1 | 100 to 1000 | 100 to 1000 |  |  |  |  |  |  |  | Cc1cc2ncccc2cc1Nc1ncc2c(n1)n([C@H]1C[C@@H]3CC[C@H]1C3)c(=O)n2C [Compound 44, 9-((1S,2S,4R)-bicyclo[2.2.1]heptan-2-yl)-7-methyl-2-((7-methylquinolin-6-yl)amino)-7,9-dihydro-8H-purin-8-one] |
| 10 to 100 | 100 to 1000 | < 1 | ≥ 1000 | 100 to 1000 |  |  |  |  |  |  |  | Cc1cc2ncnn2cc1Nc1ncc2c(n1)n(C1CC3CCC1CC3)c(=O)n2C (centres unmarked) [Compound 42, 9-((1s,4s)-bicyclo[2.2.2]octan-2-yl)-7-methyl-2-((7-methyl-[1,2,4]triazolo[1,5-a]pyridin-6-yl)amino)-7,9-dihydro-8H-purin-8-one] |
| 100 to 1000 | ≥ 1000 | < 1 | ≥ 1000 | ≥ 1000 |  |  |  |  |  |  |  | Cc1cc2ncnn2cc1Nc1ncc2c(n1)n(C13CC(F)(C1)C3)c(=O)n2C [Compound 12, 9-(3-fluorobicyclo[1.1.1]pentan-1-yl)-7-methyl-2-((7-methyl-[1,2,4]triazolo[1,5-a]pyridin-6-yl)amino)-7,9-dihydro-8H-purin-8-one] |
|  | ≥ 1000 |  | ≥ 1000 | ≥ 1000 |  |  | 1 to 10 |  |  |  | ≥ 1000 | Cc1cc2c(cc1Nc1ncc3c(n1)n(C14CC(F)(C1)C4)c(=O)n3C)OCO2 [Compound 13, 9-(3-fluorobicyclo[1.1.1]pentan-1-yl)-7-methyl-2-((6-methylbenzo[d][1,3]dioxol-5-yl)amino)-7,9-dihydro-8H-purin-8-one] |
